The source of these data is patent US9944019B2, “Tip-loaded microneedle arrays for transdermal insertion” (University of Pittsburgh—Of the Commonwealth System of …, priority 2012, dated 2018).

Molecules are shown by their SMILES.

The test system of the assay is epidermal cells. Kind of assay: Apoptosis in living human skin organ cultures, green fluorescent TUNEL assay. The class given is cell-based. The conditions noted are these: arrays removed after 5 minutes, 72 hours of exposure; pyramidal CMC-microneedle arrays. The protocol:
Cytoxan® was integrated at a concentration of 5 mg/g of CMC, enabling delivery of approximately about 140 μg per array. This is a therapeutically relevant concentration based on the area of skin targeted, yet well below levels associated with systemic toxicities. Living human skin organ cultures were used to assess the cytotoxicty of Cytoxan®. Cytoxan® was delivered by application of arrays to skin explants as we previously described. Arrays and residual material were removed 5 minutes after application, and after 72 hours of exposure, culture living skin explants were cryo-sectioned and fixed.

Consider `O=P1(N(CCCl)CCCl)NCCCO1` (stereo not shown) [Cytoxan®, cyclophosphamide], for which the “apoptosis (TUNEL)” value is reported as “extensive apoptosis of epidermal cells”.
